Patent US12121596B2, “Near infrared fluorescent dyes, formulations and related methods” (Washington University, priority 2019, dated 2024)
Positions of bridges follow the written chain, without caps; N, C: chain ends. Non-standard residues stand in square brackets, D forms with d. Residues, ends and D or L forms follow the SMILES beside them. Primed or numbered codes have the meaning given here. *: point of attachment. X1 = CC1(C)C(/C=C/C=C/C=C/C=C2/N(CCC(=O)*)c3ccc4ccccc4c3C2(C)C)=[N+](CCC(=O)[O-])c2ccc3ccccc3c21; Cypate′ = not defined here

Experiments:
heart = details: in vivo
4T1 luc/GFP cells = assay: In vitro blocking of LS301 binding and internalization; assay type: cell-based, murine
Method: For in vitro blocking studies of LS301, 4T1 luc/GFP cells were treated for 24 h with LS301 alone, blocking peptide LCKLSL plus LS301, scrambled blocking peptide LGKLSL plus LS301, or unlabeled LS301 analog LS637 plus LS301. Cells were prepared for confocal microscopy.

[1] = tested on: breast cancer patient-derived xenograft; assay: In vivo NIR imaging of tumor retention; parameters: species or system mice; details: for tumor retention: control experiments, patient-derived xenograft
Method: To establish the various tumor models, nude, Balb/c, or C57BL6 mice were injected with 10^5-10^7 tumor cells subcutaneously on unilateral or bilateral flanks. In some cases, spontaneous tumor models were used. Animals injected subcutaneously with saline served as sham tumor controls. For near-infrared imaging, 100 μL volumes of 60 μM LS301 or cypate in PBS were injected intravenously by lateral tail vein, and animals were imaged using a Pearl Small Animal Imager (LI-COR Biotechnology, Lincoln, NE, USA) at the indicated time points. In some experiments, probes were formulated in 1% albumin in PBS. Animals were shaved using commercially available hair removal equipment and products before imaging. For experiments involving further tissue analysis, animals were anesthetized with isoflurane and euthanized by cervical dislocation under anesthesia. Organs were harvested by surgical dissection. For quantitative organ biodistribution studies, individual regions of interest were drawn around each organ of interest, and fluorescence was quantified using the Pearl Small Animal Imager software.

[2] = tested on: lung (A549), breast (MDA-MB-231 and 4T1), and myeloid leukemia (HL60) cell lines; assay: Cellular uptake in cancer cell lines, live-cell imaging; assay type: cell-based; details: A549, MDA-MB-231, 4T1, HL60
Method: In general, cultured cancer cells were grown and incubated with the indicated amount of probe in Lab-Tek 8-chambered slides for the indicated time durations. Cells were washed with PBS at selected time points and underwent conventional slide preparation, ICC if indicated, and viewing under epifluorescence or confocal. For live-cell imaging of LS301, internalization at 37° C. in human dermal fibroblasts (Coriell Cell Technologies) and tumor cells including 4T1luc, MDA-MB-231, 5TGM, A549, and HL60 (ATCC) cells were cultured in appropriate media supplemented with 10% […] and penicillin/streptomycin and incubated at 37° C. in 5% CO2 incubator. The cells were grown on Lab-Tek 8-chamber slides (Nunc Inc. Rochester, NY) in the culture medium overnight before the experiment. The compounds were dissolved in 20% DMSO in […] PBS (pH 7.4) (Sigma, St. Louis, MO) for stocking solution and mixed with culture medium to reach the final concentration. Cells were incubated with 1 μM compounds in chamber slides at different time points at 37° C. After LS301 treatment, the culture media was removed and followed by adding culture media containing SYTO 13 nuclear dye from (Thermo Fisher Scientific, Waltham, MA) for 45 minutes at 37° C. For assessing cellular colocalization of LS301 with lipid rafts, the Vybrant AlexaFluor 488 Lipid Raft Labeling Kit (Thermo Fisher Scientific, Waltham, MA, USA) was used per the manufacturer's instructions. […]. LS301 and AlexaFluor 488 fluorescence were imaged using the cypate filter set (Ex/Em 750-800 nm/818-873 nm) and fluorescein isothiocyanate (FITC) filter set (Ex/Em 460-500/510-560 nm), respectively.

diverse tumors = assay: LS838 fluorescence and tumor retention

COc1cccc2c1C(=O)c1c(O)c3c(c(O)c1C2=O)C[C@@](O)(C(=O)CO)C[C@@H]3O[C@H]1C[C@H](NC(=O)CC[N+]2=C(/C=C/C=C/C=C/C=C3/N(CCC(=O)N[C@@H]4CSSC[C@@H](C(=O)N[C@@H](CCCCN)C(=O)O)NC(=O)[C@@H]5CCCN5C(=O)[C@H](CO)NC(=O)[C@H](CC(=O)O)NC(=O)[C@H](CCCNC(=N)N)NC(=O)CNC4=O)c4ccc5ccccc5c4C3(C)C)C(C)(C)c3c2ccc2ccccc32)[C@H](O)[C@H](C)O1 [LS766, doxorubicin-cypate-cyclic(DCys-Gly-Arg-Asp-Ser-Pro-Cys)-Lys-OH]
accumulation in the heart (heart): does not accumulate in the heart

LCKLSL
effect on binding and internalization of LS301 in cells (4T1 luc/GFP cells): inhibited the binding and internalization of LS301

CC1(C)C(/C=C/C=C/C=C/C=C2/N(CCC(=O)O)c3ccc4ccccc4c3C2(C)C)=[N+](CCC(=O)[O-])c2ccc3ccccc3c21 [Cypate]
tumor retention [1]: not retained | tumor retention with or without albumin formulation ([1]; in vivo): did not retain | retention in cell lines [2]: only transient retention

Cypate-cyclo(Cys-Arg-Gly-Asp-Ser-Pro-Cys)-Lys-OH ({Cypate′}-CRGDSPCK-OH; disulfide 1-7) [scrambled LS301 peptide analog]
tumor retention [1]: not retained

CC1(C)C(/C=C/C=C/C=C/C=C2/N(CCC(=O)N[C@@H]3CSSC[C@@H](C(=O)N[C@@H](Cc4ccc(O)cc4)C(=O)O)NC(=O)[C@@H]4CCCN4C(=O)[C@H](CO)NC(=O)[C@H](CC(=O)O)NC(=O)[C@H](CCCNC(=N)N)NC(=O)CNC3=O)c3ccc4ccccc4c3C2(C)C)=[N+](CCC(=O)[O-])c2ccc3ccccc3c21 [LS838, cypate-Cyclo(Cys-Gly-Arg-Asp-Ser-Pro-Cys)-Tyr-OH] (X1-[dC]GRDSPCY-OH; disulfide 1-7)
retention in tumors (diverse tumors): selectively remains in diverse tumors without significant loss of fluorescence over time
